Ends that are not written are not given here.
Assays:
CaV3 = conditions: cited from earlier work
Description: The T-type Ca^2+ current is an important regulator of sensory neuron excitability ([10], [17], [18], [20], [23], [24], [51], [71], [75]). […] Z944 (1 μM) inhibited LVA curren ...

[1] = system: small-diameter DRG neurons; assay: DRG neuron excitability, perforated patch current clamp; type: cell-based, rat
Description: To knock down CaV3.2, DRGs were dissociated as described ([13]); immediately after dissociation, DRG pellets were resuspended in 900 μl DMEM (without GlutaMax I, serum or antibiotics), to which a mixture of 9 μl Lipofectamine RNAiMAX (Invitrogen) and either a mix of three anti-Cacna1h Stealth siRNAs (RSS350285, RSS350286, RSS350287; Life Technologies; 200 nM each) or a scrambled control oligo (Stealth RNAi™ siRNA Negative Control; Life Technologies; 200 nM) were added immediately before resuspension. Cultures were than plated in 50 μl droplets onto glass coverslips that were coated with poly-D-lysine and incubated for 5–6 h; the transfection media were then replaced with full DRG culture medium. Patch-clamp recordings were conducted 24–48 h after the transfection. The following primers were used for reverse transcription polymerase chain reaction (RT-PCR) analysis: • Cacna1h sense: 5′-[…]-3′ • Cacna1h AS: 5′-[…]-3′ • Gapdh sense: 5′-[…]-3′ • Gapdh AS: 5′-[…]-3′
Neuronal excitability was studied using the amphotericin B-perforated patch-clamp current technique ([13]). The extracellular solution contained the following (in mM): 160 NaCl, 2.5 KCl, 5 CaCl2, 1 MgCl2, 10 HEPES, and 8 Glucose. The intracellular solution contained the following (in mM): 145 KCl, 15 NaCl, 5 MgCl2, 10 HEPES, and 250 μg/ml Amphotericin B. The access resistance was typically within […]. APs were generated by an injection of 200 pA current for 1 s from a holding current of 0 pA. Rheobase was determined from a train of current steps from 0 to 400 pA delivered in 20-pA increments. Current clamp recordings were sampled at 12.5 kHz. Bridge balance adjustments were not applied, since only relative changes in Erest, AP number, and rheobase were investigated.

rat hind paw [2] = assay: von Frey test; type: in vivo; conditions: 50 μl; 0.001 nmol/site; filaments 2–15 g; 8 min after injection
Description: (§1) For measurement of sensitivity to gentle touch and mechanical hyperalgesia, two methods were used. (i) Cotton swab test was performed as previously described ([53]). Briefly, rats were allowed to acclimate in a cage with a wire mesh bottom for at least 30 min and then were manually probed with a “cotton swab” pulled from a Q-tip (to approximately three times the original size). A swab was applied in a sweeping motion underneath the rats’ paws, and the withdrawal responses were recorded. Five sweeps were applied in each test, with at least 10 s between each sweep; withdrawal score was calculated as a percentage of positive responses. (ii) The von Frey test was performed using a calibrated range of filaments with different bending forces (2, 4, 6, 8, 10, and 15 g; Stoelting Co.). A single filament was applied perpendicularly to the plantar surface of the hind paw for five times, with an interval of 5 s, and it was scored for withdrawal responses. Each force was probed five times, the number of withdrawals out of five trials was counted, and the percentage of withdrawal responses was calculated. Both types of assays were performed 8 min after the hind-paw drug injection.

[3] = system: voltage-gated Na^+ current in DRG neurons; assay: Voltage-gated Na+ current in DRG neurons; type: cell-based, rat; conditions: 1 nM
rat hind paw [4] = assay: Nocifensive behavior after intraplantar hind-paw injection; type: in vivo; conditions: hind-paw injection 50 μl, 30 min
Description: Sprague–Dawley rats (body weight, 170–180 g) were grouped randomly and allowed to acclimate for at least 30 min in a transparent observation chamber before the experiment. Animals received a 50-μl intraplantar injection of ST101 (0.001–10 nmol/site), BK (10 nmol/site), RTG (1–10 nmol/site), Z944 (0.05–5 nmol/site), SP (0.5–5 nmol/site), or saline, respectively, into the right hind paw. For evaluation of the acute “spontaneous” pain, animals were video-recorded for 30 min after the injection and protective (“nocifensive”) behavior was analyzed as time spent licking, biting, lifting, and flinching the injected paw. The analyses were performed by an observer who was unaware of treatment allocations. In the pre-injection experiments, the right hind paw of the animal received a pre-injection of 50 μl Z944 (0.05–0.5 nmol/site), RTG (1–10 nmol/site), SP (0.5 nmol/site), Z944 (0.05–0.5 nmol/site)+RTG (1 nmol/site), or saline; 5 min later, on the same paw, the animal received a further 50-μl injection of BK (10 nmol/site) together with the pre-injection drug mix. Nocifensive behavior was analyzed as described earlier.

[5] = system: delayed-rectifier K^+ current in DRG neurons; assay: Delayed-rectifier K+ current in DRG neurons; type: cell-based, rat; conditions: 1 nM
rat hind paw [6] = assay: Cotton swab test (gentle touch); type: in vivo; conditions: 50 μl; 0.001 nmol/site
Description: as §1

rat hind paw [7] = assay: Hargreaves test, paw withdrawal latency to noxious heat; type: in vivo; conditions: hind-paw injection 0.001 nmol/site; 8 min after injection
Description: For measurement of thermal hyperalgesia, the change in the latency of hind-paw withdrawal in response to noxious heat was recorded using the Hargreaves’ plantar method (Ugo Basile) at 8 min after the hind-paw injection of drugs; the heat source was set to 25% of the maximal intensity.

[8] = system: high-voltage-activated (HVA) Ca^2+ currents in DRG neurons; assay: HVA Ca2+ current, whole-cell patch clamp, DRG neurons; type: cell-based, rat; conditions: 1 nM
Description: DRG neurons from adult male Sprague–Dawley rats (170–180 g) were dissociated as previously described ([13], [29]) and cultured in DMEM supplemented with GlutaMax I, 10% fetal calf serum, penicillin (50 U/ml), and streptomycin (50 μg/ml) on glass coverslips that were coated with poly-D-lysine for 2–5 days in a humidified incubator (37°C, 5% CO2). No growth factors were added to the culture media. HEK 293 cells were cultured in the same DMEM media; cells were passaged every 2 days. Human NK1 receptor (GenBank accession No. AY462098) complementary DNA (cDNA) was from the Missouri Science and Technology cDNA Resource Center. WtCaV3.1 (GenBank accession No. AF027984), wtCaV3.2 (GenBank accession No. AF051946), CaV3.1Q172H, and CaV3.2H191Q were kindly provided by Dr E. Perez-Reyes (University of Virginia). HEK293 cells were transfected using Lipofectamine 2000 (Invitrogen) according to the manufacturer's instructions. […]
All recordings were made using Multiclamp 700B amplifier in combination with pCLAMP 10.4 software (Molecular Devices). […] T-type calcium currents (LVA) were measured by 50 ms square voltage pulses to −40 mV from a holding potential of −90 mV. HVA currents were measured by 200 ms square voltage pulses to 0 mV from a holding potential of −90 mV.

[9] = system: T-type Ca^2+ channels (LVA Ca^2+ current) in DRG neurons; assay: LVA (T-type) Ca2+ current, whole-cell patch clamp, cultured small-diameter DRG neurons; type: cell-based, rat; conditions: 1 nM; mean ± SEM, n = 7; SEM
Description: DRG neurons from adult male Sprague–Dawley rats (170–180 g) were dissociated as previously described ([13], [29]) and cultured in DMEM supplemented with GlutaMax I, 10% fetal calf serum, penicillin (50 U/ml), and streptomycin (50 μg/ml) on glass coverslips that were coated with poly-D-lysine for 2–5 days in a humidified incubator (37°C, 5% CO2). No growth factors were added to the culture media. HEK 293 cells were cultured in the same DMEM media; cells were passaged every 2 days. Human NK1 receptor (GenBank accession No. AY462098) complementary DNA (cDNA) was from the Missouri Science and Technology cDNA Resource Center. WtCaV3.1 (GenBank accession No. AF027984), wtCaV3.2 (GenBank accession No. AF051946), CaV3.1Q172H, and CaV3.2H191Q were kindly provided by Dr E. Perez-Reyes (University of Virginia). HEK293 cells were transfected using Lipofectamine 2000 (Invitrogen) according to the manufacturer's instructions. ST101 was synthesized in house; Z944 was from Toronto Research Chemicals; PTX was from Enzo Life Science; and FluoZin-3AM was from Life Technologies. All other chemicals were from Sigma.
All recordings were made using Multiclamp 700B amplifier in combination with pCLAMP 10.4 software (Molecular Devices). Voltage-clamp recordings from DRG neurons were made using whole-cell patch clamp. The standard bath solution contained the following (in mM): 150 TEA-Cl; 2.5 CsCl; 2.5 CaCl2; 10 HEPES; 0.5 MgCl2; and 10 glucose (pH 7.4 adjusted with CsOH). The standard pipette solution contained the following (in mM): 110 CsCl; 3 MgCl2; 10 EGTA; 10 HEPES; 3 Mg-ATP; and 0.6 GTP (pH 7.4 adjusted with CsOH). The access resistance was typically within 4–8 MΩ. T-type calcium currents (LVA) were measured by 50 ms square voltage pulses to −40 mV from a holding potential of −90 mV. HVA currents were measured by 200 ms square voltage pulses to 0 mV from a holding potential of −90 mV.
where y is the current inhibition; A1 and A2 are the maximum and minimum effects, respectively; x is the S9SP concentration; and nH is the Hill coefficient.

Compound | EC50, CaV3 potentiation (CaV3) | resting membrane potential (Erest) [1] | action potential (AP) firing ([1]; 200 pA for 1 s) | small DRG neuron excitability ([1]; perforated current clamp) | effect on Erest, AP number, or rheobase in Cacna1h knocked-down neurons ([1]; siRNA against Cacna1h) | response to von Frey filament stimulation (rat hind paw [2]) | effect on voltage-gated Na^+ current [3] | nocifensive behavior (rat hind paw [4]; 0.001–10 nmol/site) | effect on delayed-rectifier K^+ current [5] | sensitivity to light touch, cotton swab assay (rat hind paw [6]) | paw withdrawal latency on radiant heat exposure (rat hind paw [7]) | effect on HVA current [8] | enhancement of peak LVA current [9] | AP number ([1]; 250 nM) | Erest ([1]; 250 nM) | rheobase ([1]; 250 nM) | nocifensive behavior (rat hind paw [4]; 10 nmol/site)
O=C1N=C2C=CC=CN2C12Cc1ccccc1C2 [ST101, spiro[imidazo[1,2-a]pyridine-3,2-indan]-2(3H)-one] | sub-nanomolar range | depolarized | significantly increased | increased | neither Z994 nor ST101 produced any significant effect | greatly increased response rates | no effect | moderate but significant protective effect | no effect | ineffective | significantly reduced | without an effect | 50.6% ± 14.1% |  |  |  | 
RPPGFSPFR [BK, bradykinin, pro-algesic signaling peptide] |  |  |  |  |  |  |  |  |  |  |  |  |  | increased | depolarized | significantly reduced | strong nocifensive response
